In patent US12576059B2, “Methods and compositions for treatment of inflammatory disease” (priority 2021, dated 2026):
Entries after “also recorded” stand apart in the source; their conditions may differ.

Columns and labels:
[1] = system: LPS induced acute lung inflammation; assay: Example 1a: mouse model of lung inflammation (FIGS. 3-6, Table 4); type: in vivo, mice; settings: for Alveolar lumen area (25%; 75%) / Partition thickness Me (25%; 75%): + LPS, median; for protective / therapeutic effect compared to other deuterated PUFAs: preliminary data (not shown)
Protocol: FIGS. 3-6 Groups of female (f) and male (m) mice received a 6-week course of dietary (H) AA or a 6-week course of deuterated arachidonic acid (D6-ARA, 15 mg/day) followed by single intranasal administration of LPS.
LPS treatment promotes inflammation through various mechanisms including secretion of pro-inflammatory cytokines, eicosanoids and induction of ROS. Following induction by the intranasal administration of LPS, an acute lung inflammation quickly follows. […] Such a pronounced inflammatory infiltration of the interalveolar septa contributed to their destruction and more frequent formation of emphysema foci in this group. […] (See FIGS. 3-6.)
The degree of alveolar lumen area changes in both groups of animals depended on gender. […]

[2] = system: LPS induced acute lung inflammation; assay: Example 2: LPS induced inflammation, H-AA versus D-AA, male and female mice; type: in vivo; settings: for Interalveolar space / Interalveolar surface area: 6-week course, then single intranasal LPS; for inflammation in the lungs (in words): male and female mice, after LPS
Protocol: LPS administration was conducted as per Example 1 above except that four groups of mice were used. The first two groups (1 and 2) were control mice (male and female). The next two groups (3 and 4) of mice received a 6-week course of H-AA (male and female). Finally, the last two groups (5 and 6) of mice received a 6-week course of D6-AA (second group). Groups 3, 4, 5 and 6 then received a single intranasal administration of LPS to induce acute lung inflammation. The degree of the inflammatory response was determined per Example 1. Next, the height and distance of the interalveolar septa was determined to provide for the surface area of the inflammation.

[3] = system: LPS-induced acute lung injury; assay: Example 5: response to intranasal LPS in mice fed AA diets (ALI model); type: in vivo, BALB/c and C57BL/6 mice; settings: for LPS-induced perivascular edema as measured by alveolar wall thickness: 6 weeks diet, versus H-AA
Protocol: Mouse diet was from Research Diets (New Brunswick, NJ) based on fat-free AIN-93G. Fat was added at 11.3% by weight total fat and 0.25% either normal H-AA or D-AA respectively (Table 5).
Male and Female BALB/c and C57BL/6 mice were provided with standard environmental conditions i.e., 22±1° C., 55±5% humidity and 12 h light/dark cycle with free food and water access. At the age of six weeks, animals were split into 8 groups (n=160 total, 20 of each gender) and were continuously fed ad libitum on the diet containing either H-AA or D-AA for 2, 4, 6 or 8 weeks at the daily rate of ca. 5 g of diet per mouse for the duration of the study. The other two groups of animals (n=40, 20 of each gender) received neither PUFA-enriched diets nor LPS served as controls. The body weight and food intake were measured once a week. After completing the appropriate diet course, half of the mice in each group (10 females and 10 males) (i) underwent the procedure of bronchoalveolar lavage (BAL) to accomplish cytological smears, (ii) were subjected to tissue harvesting and collection of colon contents (after humane euthanasia with lethal dose of sodium thiopental, 100 mg/kg intravenously). On the ninth week of this diet course, the other half of the group was administered 1 mg/kg of intranasal (IN) LPS from Escherichia coli O111:B4 (Sigma Aldrich) 24 hours prior to BAL and subsequent euthanasia. 40 D-AA fed animals (20 males, 20 females) were switched to the H-AA diet for washout experiments.
Cell differential counts were performed on smear slides from resuspended cell pellets of BAL, using commercially available May-Grünwald-Giemsa staining kits. All slides were evaluated in a light microscope (Optec BK5000) at ×200 magnification. These cell counts such as lymphocytes, neutrophils, plasmacytes and macrophages were obtained from 10 fields of each slide.
Lung, stomach and colon samples were fixed with 4% formaldehyde (freshly prepared from paraformaldehyde), paraffin embedded and cut into 2-4 μm sections. For routine histology, all fixed tissue sections were stained with hematoxylin-eosin (H&E). All slides were evaluated at 10 fields each using a Genetic Pro Bino light microscope (A) and photographed with a digital camera (Delta Optical). Stomach and colon tissue sections were analyzed for signs of active and chronic inflammation, formation of lymph follicles, and hyperplasia of epithelial cells. The severity of lung injury was scored according to lung pathological changes, including interalveolar and perivascular hemorrhages, peri-vascular and peribronchial infiltration, perivascular edema, thickness of alveolar wall, alveolar space value, and emphysematous transformations. Lung tissue samples were additionally stained with commercially available Martius Scarlet Blue (MSB) stain kit (Avantik, USA) for fibrin visualization. The presence of homogeneous fibrin masses of yellow, pink or red color in the lung blood vessels were interpreted as thrombotic masses.
We challenged mice fed AA-diets for 6 weeks using LPS treatment. […] Perivascular edema, signs of thrombosis, alveolar wall thickening, irregular distribution of air spaces, and focal areas of alveolar hemorrhage were also observed. We preferred intranasal administration to the more extreme intratracheal route that induces IL-1β which in turn amplifies inflammation making it difficult to distinguish between the early and late consequences of the LPS challenge. Indeed, 24 hours after intranasal administration of LPS at a dose of 1 mg/kg, there was no significant increase in the IL-1B content in BAL fluid or colon homogenates compared to animals not treated with LPS regardless of type or duration of the diets. Intranasal LPS 24 hours post administration increased neutrophils in BAL fluid in all treated groups regardless of gender or form of AA diets.

[4] = set-up: species or system mice; settings: in vivo
Protocol: Male and Female BALB/c and C57BL/6 mice were provided with standard environmental conditions i.e., 22±1° C., 55±5% humidity and 12 h light/dark cycle with free food and water access. At the age of six weeks, animals were split into 8 groups (n=160 total, 20 of each gender) and were continuously fed ad libitum on the diet containing either H-AA or D-AA for 2, 4, 6 or 8 weeks at the daily rate of ca. 5 g of diet per mouse for the duration of the study. The other two groups of animals (n=40, 20 of each gender) received neither PUFA-enriched diets nor LPS served as controls. The body weight and food intake were measured once a week. […]
The relative ratio of H-AA to D-AA was determined by gas chromatography (GC) coupled to chemical ionization mass spectrometry. […]
As the first step to test this hypothesis, we studied the metabolic effect of such a dietary supplementation. We determined the actual content of D-AA and then performed a washout experiment after a long period of supplementation by switching from D-AA to H-AA diet by MS analysis of several mouse tissues in the AA-diet fed mice. […]

[5] = 6 or 8 weeks diet, compared to H-AA

Q: Which results are given for [2H]C([2H])(/C=C\CCCCC)/C=C\C([2H])([2H])/C=C\C([2H])([2H])/C=C\CCCC(=O)O [D-AA, 7,7,10,10,13,13-D6-arachidonic acid]?
A: alveolar lumen area and thickness versus controls ([1]; 6-week course, 15 mg/day, then single intranasal LPS): consistent with controls; Alveolar lumen area (25%; 75%) ([1]; females): 57.4 μm^2; Partition thickness Me (25%; 75%) ([1]; females): 3.6 µm; Alveolar lumen area (25%; 75%) ([1]; males): 112.1 μm^2; Partition thickness Me (25%; 75%) ([1]; males): 5.55 µm; protective / therapeutic effect compared to other deuterated PUFAs [1]: best protective effect; protective / therapeutic effect compared to other deuterated PUFAs ([1]; listed as D6-AA): better therapeutic effect; Interalveolar space ([2]; female mice): ~3.5 μm; Interalveolar surface area ([2]; female mice): ~90 μm^2; inflammation in the lungs (in words) [2]: statistically significant reduction in inflammation; inflammation in the lungs (in words) ([2]; listed as D-6 AA): less inflammation in the lungs; Interalveolar space ([2]; male mice): ~5.0 μm; Interalveolar surface area ([2]; male mice): ~190 μm^2; LPS-induced interalveolar septa / wall thickening (in words) ([3]; 6-week diet, then single intranasal LPS): greater protective action; alveolar spaces and thickness of interalveolar walls [3, 5]: improved; endotoxin-induced peribronchial infiltration [3, 5]: significantly decreased; LPS-induced lung tissue damage, inflammation and emphysema (in words) ([3]; dietary consumption prior to LPS exposure): substantially mitigated; also recorded: substantially reduced; LPS-induced perivascular edema as measured by alveolar wall thickness ([3]; female mice): almost negligible; LPS-induced perivascular edema as measured by alveolar wall thickness ([3]; male mice): significantly milder effect; inflammatory cell types in BAL, H-AA versus D-AA ([3]; regardless of gender and LPS treatment): No statistically significant differences; incorporation of the deuterated form ([4]; both, BALB/c and C57BL/6, mouse, 12 weeks): more than 60%; washout with H-AA feeding ([4]; mouse): more rapid than brain
